“Also recorded” adds a separate entry of the source. Where a SMILES comes first, the peptide text is derived from it. Bridges are numbered along the chain shown (N, C = ends).
Experiments:
[1] = test system: primary murine skin fibroblasts; test: Western blotting of cell-associated mature alpha-1 type I collagen; format: cell-based, mouse; conditions: P12-3A 100 μM
Experimental: (§1) FIG. 4A-F. Effects of P12-3A on cultured skin cells. A, Insulin concentrations as a function of time in logarithmically growing primary murine skin fibroblasts in the absence or presence of P12-3A (100 μM). […] Data are mean±SEM of 4 independent replications. *P<0.05, **P<0.01. B, Proliferation of cells in the absence or presence of P12-3A (100 μM). […] C,D,E, P12-3A (100 μM) potentiates insulin-induced collagen production in skin fibroblasts. Collagen production was assessed by COL1A1 mRNA levels (C), levels of hydroxyproline secreted into the medium (D), and cell-associated mature alpha-1 type I collagen levels detected by Western blotting (E). […] Migration of HaCaT cells 48 h after induction of a scratch wound in the presence of the indicated quantities of insulin and/or P12-3A (100 μM). […]
(§2) Insulin promotes wound healing and overall skin health by affecting a number of processes, including cell proliferation (2,3), cell migration (5,6), and the production and secretion of ECM components, particularly type I collagen (7-13). We therefore assessed the ability of P12-3A to influence these processes in cultured skin fibroblasts and keratinocytes. To that end, primary mouse skin fibroblasts were grown for 4 d in multiple concentrations of insulin in the presence or absence of P12-3A, and insulin concentration over time was monitored by ELISA. […]

[2] = test system: alpha-1 type I collagen (COL1A1) mRNA in primary murine skin fibroblasts; test: COL1A1 mRNA quantification by RT-PCR; format: cell-based, mouse; conditions: P12-3A 100 μM, 4 d, confluent monolayers
Experimental: as §1, §2

[3] = test system: primary murine skin fibroblasts; test: Hydroxyproline secreted into the medium (collagen production and secretion); format: cell-based, mouse; conditions: P12-3A 100 μM
Experimental: as §1, §2

[4] = test system: primary murine skin fibroblasts; test: Cell proliferation (CellTiter 96 AQueous); format: cell-based, mouse; conditions: 100 μM P12-3A, 10 nM insulin; not statistically significant
Experimental: as §1, §2

[5] = test system: HaCaT cells; test: In vitro scratch wound assay, keratinocyte migration; format: cell-based; conditions: P12-3A 100 μM, 48 h after scratch wound, different concentrations of insulin
Experimental: as §1, §2

With CC(C)C[C@H](NC(=O)[C@H](CO)NC(=O)[C@@H](N)CCC(N)=O)C(=O)N1CCC[C@H]1C(=O)N[C@@H](Cc1c[nH]c2ccccc12)C(=O)N[C@H]1CSSC[C@@H](C(=O)N[C@H](C(=O)N[C@H](C(N)=O)[C@@H](C)O)C(C)C)NC(=O)[C@H](Cc2c[nH]cn2)NC(=O)[C@@H]2CCCN2C(=O)[C@H](Cc2ccc(O)cc2)NC1=O [Peptide P12-3A] (H-QSLPWCYPHCVT-NH2; disulfide 6-10 (inferred)) the “mature, cell-associated collagen levels” value [1] was “increased”, the “COL1A1 mRNA levels” value [2] was ~2.6 times the levels of untreated cells and the “hydroxyproline levels secreted into the medium” value [3] was ~4.6 times that secreted by untreated cells. For the same compound, the cell proliferation [4] was “modestly increased; also recorded: No significant differences” and the migration of keratinocytes [5] was “significantly increase; also recorded: potentiates the migration of keratinocytes”.

— patent US11555055B2, “Peptide inhibitors of insulin-degrading enzyme” (The Regents of the University of California, priority 2017, dated 2023)
